“And” between values parts separate entries of the source, which are not always exact repeats. Equal values may be shown once. Inconclusive results and toxic doses are left out.
Test system: BDF1 mice, P388 leukemia ip, median survival T/C
Assay: NCI In Vivo Anticancer Drug Screen. Data for tumor model P388 Leukemia (intraperitoneal) in B6D2F1 (BDF1) mice
Details: endpoint: median survival time, higher = longer survival
Procedure, shortened: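 Reported as T/C, where T is the survival measurement in dosed animals and C the same measurement in vehicle controls.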

[1] = dose: 100.0 mg/kg/injection, schedule: Q04DX003 (ip), vehicle: saline with Tween-80
[2] = dose: 200.0 mg/kg/injection, schedule: Q01DX009 (ip), vehicle: saline with Tween-80
[3] = dose: 400.0 mg/kg/injection, schedule: Q01DX009 (ip), vehicle: saline with Tween-80
[4] = dose: 400.0 mg/kg/injection, schedule: Q04DX003 (ip), vehicle: saline with Tween-80
[5] = dose: 12.5 mg/kg/injection, schedule: Q04DX003 (ip), vehicle: saline
[6] = dose: 25.0 mg/kg/injection, schedule: Q04DX003 (ip), vehicle: saline
[7] = dose: 50.0 mg/kg/injection, schedule: Q01DX005 (ip), vehicle: saline with Tween-80
[8] = dose: 100.0 mg/kg/injection, schedule: Q01DX005 (ip), vehicle: saline with Tween-80
[9] = dose: 200.0 mg/kg/injection, schedule: Q01DX005 (ip), vehicle: saline with Tween-80
[10] = dose: 1.56 mg/kg/injection, schedule: Q01DX009 (ip), vehicle: saline
[11] = dose: 6.25 mg/kg/injection, schedule: Q01DX009 (ip), vehicle: saline
[12] = dose: 12.5 mg/kg/injection, schedule: Q01DX009 (ip), vehicle: saline with Tween-80
[13] = dose: 25.0 mg/kg/injection, schedule: Q01DX009 (ip), vehicle: saline with Tween-80
[14] = dose: 50.0 mg/kg/injection, schedule: Q01DX009 (ip), vehicle: saline with Tween-80
[15] = dose: 100.0 mg/kg/injection, schedule: Q04DX003 (ip), vehicle: Klucel (hydroxypropylcellulose) (HPC)
[16] = dose: 200.0 mg/kg/injection, schedule: Q01DX009 (ip), vehicle: Klucel (hydroxypropylcellulose) (HPC)
[17] = dose: 200.0 mg/kg/injection, schedule: Q04DX003 (ip), vehicle: Klucel (hydroxypropylcellulose) (HPC)
[18] = dose: 400.0 mg/kg/injection, schedule: Q04DX003 (ip), vehicle: Klucel (hydroxypropylcellulose) (HPC)
[19] = dose: 25.0 mg/kg/injection, schedule: Q01DX009 (ip), vehicle: Klucel (hydroxypropylcellulose) (HPC)
[20] = dose: 50.0 mg/kg/injection, schedule: Q01DX009 (ip), vehicle: Klucel (hydroxypropylcellulose) (HPC)
[21] = dose: 100.0 mg/kg/injection, schedule: Q01DX009 (ip), vehicle: Klucel (hydroxypropylcellulose) (HPC)
[22] = dose: 200.0 mg/kg/injection, schedule: Q04DX003 (ip), vehicle: saline with Tween-80
[23] = dose: 100.0 mg/kg/injection, schedule: Q01DX009 (ip), vehicle: saline with Tween-80

Cc1ccc(N2C(=O)C=CC2=O)cc1
T/C (dose: 5.0 mg/kg/injection, schedule: Q01DX009 (ip), vehicle: saline sonified): 100 % of control | T/C (dose: 10.0 mg/kg/injection, schedule: Q01DX009 (ip), vehicle: saline sonified): 119 % of control | T/C (dose: 20.0 mg/kg/injection, schedule: Q01DX009 (ip), vehicle: saline sonified): 100 % of control

C[C@]12C=CC(=O)C=C1CC[C@@H]1[C@@H]2[C@@H](O)C[C@@]2(C)[C@H]1CC[C@]2(O)C(=O)COC(=O)CCC(=O)O
T/C (dose: 66.0 mg/kg/injection, schedule: Q04DX003 (ip), vehicle: saline with Tween-80): 113 % of control | T/C [1]: 113 % of control | T/C (dose: 150.0 mg/kg/injection, schedule: Q04DX003 (ip), vehicle: saline with Tween-80): 108 % of control | T/C [2]: 118 % of control | T/C [3]: 118 % of control | T/C [4]: 104 % of control

CCOC(=O)C1(C)CCCC1=O (stereo unspecified)
T/C [5]: 100 % of control | T/C [6]: 95 % of control | T/C (dose: 50.0 mg/kg/injection, schedule: Q04DX003 (ip), vehicle: saline): 90 % of control

CC1(C)O[C@]2(C)CC[C@@H]1[C@@H](O)[C@@H]2N1CCCC1
T/C (dose: 50.0 mg/kg/injection, schedule: Q01DX005 (ip), vehicle: saline): 95 % of control | T/C (dose: 100.0 mg/kg/injection, schedule: Q01DX005 (ip), vehicle: saline): 106 % of control | T/C (dose: 200.0 mg/kg/injection, schedule: Q01DX005 (ip), vehicle: saline): 106 % of control

CC(C)(C)OC(=O)NCC(=O)NC(Cc1c[nH]c2ccccc12)C(=O)O (stereo unspecified)
T/C [7]: 102 % of control | T/C [8]: 95 % of control | T/C [9]: 95 % of control

C[CH2][Pb]([CH2]C)([CH2]C)[O]C(=O)COc1ccccc1
T/C (dose: 0.75 mg/kg/injection, schedule: Q01DX009 (ip), vehicle: Klucel (hydroxypropylcellulose) (HPC)): 118 % of control | T/C (dose: 0.75 mg/kg/injection, schedule: Q04DX003 (ip), vehicle: saline with Tween-80): 107 % of control | T/C (dose: 1.5 mg/kg/injection, schedule: Q04DX003 (ip), vehicle: saline with Tween-80): 117 % of control | T/C (dose: 1.56 mg/kg/injection, schedule: Q01DX009 (ip), vehicle: saline with Tween-80): 115 % of control | T/C (dose: 3.9 mg/kg/injection, schedule: Q04DX003 (ip), vehicle: alcohol): 112 % of control | T/C (dose: 6.0 mg/kg/injection, schedule: Q01DX009 (ip), vehicle: Klucel (hydroxypropylcellulose) (HPC)): 117 % of control | T/C (dose: 6.0 mg/kg/injection, schedule: Q04DX003 (ip), vehicle: alcohol): 120 % of control | T/C (dose: 6.25 mg/kg/injection, schedule: Q01DX009 (ip), vehicle: saline with Tween-80): 153 % of control and 168 % of control | T/C (dose: 9.0 mg/kg/injection, schedule: Q04DX003 (ip), vehicle: alcohol): 105 % of control | T/C (dose: 12.0 mg/kg/injection, schedule: Q04DX003 (ip), vehicle: saline with Tween-80): 107 % of control

Clc1ccc2c(c1)N(CCCN1CCCC13CCCCC3)c1ccccc1S2
T/C [10]: 87 % of control | T/C (dose: 1.56 mg/kg/injection, schedule: Q04DX003 (ip), vehicle: saline with Tween-80): 91 % of control | T/C (dose: 3.12 mg/kg/injection, schedule: Q01DX009 (ip), vehicle: saline): 104 % of control | T/C (dose: 3.12 mg/kg/injection, schedule: Q04DX003 (ip), vehicle: saline with Tween-80): 91 % of control | T/C [11]: 95 % of control | T/C (dose: 6.25 mg/kg/injection, schedule: Q04DX003 (ip), vehicle: saline with Tween-80): 91 % of control | T/C (dose: 12.5 mg/kg/injection, schedule: Q01DX009 (ip), vehicle: saline): 95 % of control | T/C (dose: 12.5 mg/kg/injection, schedule: Q04DX003 (ip), vehicle: saline with Tween-80): 95 % of control

Nc1nc2ncc(CNc3ccc(C(=O)NC(CCC(=O)O)C(=O)O)cc3)nc2c(=O)[nH]1 (stereo unspecified)
T/C [12]: 100 % of control | T/C [13]: 106 % of control | T/C [14]: 107 % of control | T/C (dose: 50.0 mg/kg/injection, schedule: Q01DX010 (ip), vehicle: saline): 100 % of control

Cc1cc(N(c2c(Cl)c(Cl)c(NS(=O)(=O)c3ccccc3)c(Cl)c2Cl)S(=O)(=O)c2ccccc2)cc(C)c1N
T/C [15]: 96 % of control | T/C [16]: 92 % of control | T/C [17]: 96 % of control | T/C (dose: 400.0 mg/kg/injection, schedule: Q01DX009 (ip), vehicle: Klucel (hydroxypropylcellulose) (HPC)): 96 % of control | T/C [18]: 88 % of control

O=[N+]([O-])c1[nH]cnc1Br
T/C [19]: 93 % of control | T/C [20]: 96 % of control | T/C [21]: 96 % of control | T/C [16]: 86 % of control

CCCCOB(CI)OCCCC
T/C [10]: 95 % of control | T/C (dose: 3.13 mg/kg/injection, schedule: Q01DX009 (ip), vehicle: saline): 109 % of control | T/C [11]: 89 % of control and 109 % of control

C=CC(=O)NCNC(=O)CCBr
T/C [22]: 150 % of control | T/C (dose: 300.0 mg/kg/injection, schedule: Q04DX003 (ip), vehicle: saline with Tween-80): 170 % of control

[Na+]
T/C (dose: 3.0 mg/kg/injection, schedule: Q01DX009 (ip), vehicle: saline): 104 % of control | T/C (dose: 6.0 mg/kg/injection, schedule: Q01DX009 (ip), vehicle: saline): 95 % of control | T/C (dose: 12.0 mg/kg/injection, schedule: Q01DX009 (ip), vehicle: saline): 104 % of control | T/C [5]: 109 % of control | T/C [6]: 95 % of control

Cc1nc(N)nc2nc[nH]c12
T/C [12]: 94 % of control | T/C [13]: 96 % of control | T/C [14]: 99 % of control | T/C [23]: 96 % of control

CCNC(=O)N(CC(N)=O)c1ncc([N+](=O)[O-])s1
T/C (dose: 12.5 mg/kg/injection, schedule: Q01DX001 (ip), vehicle: saline with Tween-80): 98 % of control | T/C (dose: 25.0 mg/kg/injection, schedule: Q01DX001 (ip), vehicle: saline with Tween-80): 106 % of control | T/C (dose: 50.0 mg/kg/injection, schedule: Q01DX001 (ip), vehicle: saline with Tween-80): 98 % of control | T/C [7]: 94 % of control | T/C (dose: 100.0 mg/kg/injection, schedule: Q01DX001 (ip), vehicle: saline with Tween-80): 93 % of control | T/C [8]: 86 % of control | T/C (dose: 200.0 mg/kg/injection, schedule: Q01DX001 (ip), vehicle: saline with Tween-80): 98 % of control | T/C [9]: 96 % of control

CCOC(=O)C(C)(C)CCl
T/C [15]: 90 % of control | T/C [17]: 90 % of control | T/C [18]: 100 % of control

C1CC2C(CCCC23OCCO3)C2(C1)OCCO2 (stereo unspecified)
T/C [20]: 113 % of control | T/C [21]: 86 % of control | T/C (dose: 100.0 mg/kg/injection, schedule: Q04DX003 (ip), vehicle: other): 100 % of control | T/C [16]: 95 % of control | T/C (dose: 200.0 mg/kg/injection, schedule: Q04DX003 (ip), vehicle: other): 95 % of control | T/C (dose: 400.0 mg/kg/injection, schedule: Q04DX003 (ip), vehicle: other): 100 % of control

CC(C)(C)NCC(O)c1cc(C(F)(F)F)nc2c(C(F)(F)F)cccc12 (stereo unspecified)
T/C [14]: 100 % of control | T/C [23]: 100 % of control | T/C [2]: 97 % of control

Cn1cnc([N+](=O)[O-])c1[Se]c1ncnc2c1c(C#N)cn2C1OC(CO)C(O)C1O (stereo unspecified)
T/C (dose: 6.25 mg/kg/injection, schedule: Q04DX003 (ip), vehicle: saline): 93 % of control | T/C [5]: 119 % of control | T/C [6]: 102 % of control

Oc1c(I)cc(Cl)c2cccnc12
T/C (dose: 12.5 mg/kg/injection, schedule: Q01DX009 (ip), vehicle: Klucel (hydroxypropylcellulose) (HPC)): 115 % of control | T/C [19]: 115 % of control | T/C [20]: 120 % of control

O=c1[nH]cnc2c(Cl)c(C(Cl)(Cl)Cl)nn12 (tested in a mixture with another compound)
T/C [14]: 99 % of control | T/C [23]: 90 % of control and 103 % of control | T/C [1]: 111 % of control | T/C [2]: 99 % of control and 114 % of control | T/C [22]: 104 % of control | T/C [3]: 93 % of control and 112 % of control | T/C [4]: 102 % of control

— PubChem BioAssay AID328 (DTP/NCI, 2004)
